In US5164380A, “Process for preparing piroxicam/cyclodextrin complexes, the products obtained and their pharmaceutical compositions” (Chiesi Farmaceutici S.p.A., priority 1990, dated 1992):
Converted amounts (≈) assume the structure as drawn.

Columns and labels:
[1] = Solubilization kinetics / solubility test (oversaturation, paddle method, continuous flow cell)
From the text: This test, effected within a few minutes from the beginning of the solubilization process, provides data to be considered as one of the most important parameters for the biopharmaceutical evaluation of the products.

[2] = background; cited from earlier work
[3] = Water-wettability by water contact angle analysis; type: physicochemical
From the text: Data are given relevant to water-wettability determined by water contact angle analysis, true density determined by Helium pycnometry, and surface area determined by mercury porosimetry (Table 2).

[4] = background, cited from earlier work

For CN1C(C(=O)Nc2ccccn2)=C(O)c2ccccc2S1(=O)=O [piroxicam], the “C max (oversaturation value)” value ([1]; acetate buffer pH 5.0, 500 ml, 125 rpm, 37 °C, product at least 10 times saturation quantity) is listed as 30 mg/L, the solubility thermodynamic ([1]; acetate buffer, pH 5, aqueous buffer) is listed as 30 µg/mL (≈ 90.5 µM) and the “solubility (in words)” value [2] is listed as “poorly soluble in water and in biological fluids at physiological pH values”. For the same molecule, the water contact angle [3] was 76 °, the “analgesic and anti-inflammatory activity (in words)” value [4] was “considerable analgesic and anti-inflammatory activity” and the “absorption (in words)” value ([4]; oral and rectal routes) was “slow and gradual absorption via both the oral and rectal routes”.
